Assays:
[1] = tested on: B-cell line; assay: Immunosuppressive activity in BALB/c mouse splenocytes assessed as reduction in LPS-induced mouse B-lymphocytes proliferation incubated for 8 hrs by beta scintillation counting based [3H]thymidine incorporation assay; type: functional
[2] = Immunosuppressive activity in BALB/c mouse splenocytes assessed as reduction in ConA-induced mouse T-lymphocytes proliferation incubated for 8 hrs by beta scintillation counting based [3H]thymidine incorporation assay; type: functional; details: T-cell
[3] = Cytotoxicity in BALB/c mouse Splenocyte assessed as reduction in cell viability incubated for 48 hrs by MTT assay; type: toxicity, cell-based; details: splenocytes
[4] = Selectivity index, ratio of CC50 for cytotoxicity in BALB/c mouse splenocytes to IC50 for immunosuppressive activity in BALB/c mouse splenocytes assessed as reduction in LPS-induced mouse B-lymphocytes proliferation; type: toxicity, cell-based; details: read-out: Ratio CC50/IC50
[5] = Selectivity index, ratio of CC50 for cytotoxicity in BALB/c mouse splenocytes to IC50 for immunosuppressive activity in BALB/c mouse splenocytes assessed as reduction in ConA-induced mouse T-lymphocytes proliferation; type: toxicity, cell-based; details: read-out: Ratio CC50/IC50

| Compound | IC50 ([1]; read-out: IC50) [µM] | IC50 [2] [µM] | CC50 at 48 h [3] [µM] | selectivity ratio [4] | selectivity ratio [5] | IC50 [1] [µM] |
| --- | --- | --- | --- | --- | --- | --- |
| CC1=C(O)C(=O)C[C@@H]2[C@@]3(C)CC[C@](C)(C(=O)O)C[C@@H]3CC[C@]12C | 3.05 | 3.41 | 6.46 | 2.1 | 1.9 |  |
| C[C@@H]1C(=O)CC[C@@H]2[C@@]3(C)CC[C@](C)([C@@H](O)CO)C[C@@H]3CC[C@]21C | 10.2 | 23.9 | 24.2 | 2.4 | 1 |  |
| CC1=CC(=O)C[C@@H]2[C@@]3(C)CC[C@](C)(O)C[C@@H]3CC[C@@]12C | 2.24 | 3.11 | 13.2 | 5.9 | 4.2 |  |
| C/C=C/C[C@@H](C)[C@@H](O)[C@H]1C(=O)N[C@@H](CC)C(=O)N(C)CC(=O)N(C)[C@@H](CC(C)C)C(=O)N[C@@H](C(C)C)C(=O)N(C)[C@@H](CC(C)C)C(=O)N[C@@H](C)C(=O)N[C@H](C)C(=O)N(C)[C@@H](CC(C)C)C(=O)N(C)[C@@H](CC(C)C)C(=O)N(C)[C@@H](C(C)C)C(=O)N1C [CYCLOSPORINE] |  |  |  |  |  | 0.74 |

Source: ChEMBL document CHEMBL5120889, “Dolabrane-Type Diterpenoids with Immunosuppressive Activity from Koilodepas hainanense” (J Nat Prod, 2022)
